Non-standard residues stand in square brackets, D forms with d. pGlu = O=C1CC[C@@H](C(=O)O)N1

Assay type in all cases: in vivo, human
Data set [1] has as its system sub-acute pain of left wrist. The data set can be described thus: Example 10: analgesic effect on wrist pain, topical. Here is the method:
A subject had sub-acute pain of their left wrist, which they twisted while lifting a child.
The subject topically applied an anhydrous composition containing 0.7% (w/v) N-Ac-Tyr-Pro-Phe-Phe-NH2 (SEQ ID NO: 23) in EP73, formulated as described in Example 2, before bedtime. The next morning, about 70% relief of pain was observed. The subject topically re-applied the same composition under plastic film wrap for 2 hours, and the wrist pain was completely eradicated. The subject was free of any wrist pain and the improvement was 100% as judged by clinical evaluation.

The subject of data set [2] is severe migraine. The data set can be described thus: Example 12: analgesic effect on severe migraine headache, topical. The following applies: 1% (w/v) in WEP442, topical. On the procedure:
One day, at approximately 8 AM, visual aura and pain in the frontal scalp, forehead and frontal sinuses began and became very severe within 5-10 minutes. Thereafter, the subject topically applied a composition containing 1% (w/v) N-Ac-Tyr-Pro-Phe-Phe-NH2(SEQ ID NO: 23) in WEP442 to the involved area. […] Three (3) days later they remained free of any migraine headache and symptoms.

The subject of data set [3] is psoriatic arthritis of fingers. The data set can be described thus: Example 19: analgesic effect on psoriatic arthritis of fingers, topical. On the procedure:
A subject had extensive plaque psoriasis and painful arthritis of the interphalangeal joints of both index fingers, left thumb and left 5th finger. The pain was compromising their work performance as an esthetician. […] Pain relief lasted for about 6 hours.

The subject of data set [4] is disabling pain in hands and fingers after exertion. The data set can be described thus: Example 25: analgesic effect on severe muscle soreness, topical. The following applies: 1% (w/v) in WEP442, topical. An excerpt:
A subject had disabling pain in their hands and fingers the next morning after a day of intense exertion of the hands and fingers from using hand screw drivers over a 12-hour period during a building construction job. The intensity of pain was so great that they were unable to lace up their work boots.

The subject of data set [5] is severe nauseating headache. The data set can be described thus: Example 60: analgesic effect on headache due to inhalation of exhaust fumes, topical. The following applies: 0.5% (w/v) in WEP442, topical. An excerpt: A construction worker, suffered a severe nauseating headache on a day when, for about an hour, they were exposed to exhaust fumes from a gasoline motor driven dust blower early in the day. The headache persisted all day and into the evening.

Data set [6] has as its system severe pain on the left hip. The data set can be described thus: Example 89: analgesic effect on hip pain, topical. Conditions: 1% (w/v) in WEP442, topical. An excerpt:
A subject had severe lumber stenosis (lower back arthritis) for about 3 years caused by a fall from a ladder 7 years earlier. The subject had been pain free from lower back arthritis due to weekly acupuncture treatment, usually at 10 AM every Tuesday. On one Friday evening, the subject suddenly developed severe pain on the left hip and the pain persisted.

Data set [7] relates to mechanically induced skin pain. The data set can be described thus: Example 91: experimentally induced skin pain (needle roller), topical. Conditions: 1% (w/v) in WEP442, topical before and after wounding. An excerpt:
A subject, rolled onto their left forearm with forceful pressure a roller having many tiny stainless steel needles 1 mm in length, which penetrated through the epidermis causing sharp pain as well as punctate bleeding.

The subject of data set [8] is osteoarthritis of the knees. The data set can be described thus: Example 94: osteoarthritic knees, intra-articular injection of N-Ac derivative. The following applies: approximately 1% (w/v) in water, 1 ml per knee intra-articular. On the procedure:
A subject with osteoarthritis of the knees that progressively worsened over the years, evaluated the analgesic effectiveness of many topical preparations of tetrapeptide derivatives of the invention on numerous occasion. After such experiences, they decided to self-inject […] knees with a sterile aqueous preparation of N-Ac-Tyr-Pro-Phe-Phe-NH2, (SEQ ID NO: 23) at a concentration of approximately 1% (w/v) in water. Via the sub-patellar route, each knee was injected with 1 ml of the preparation, containing approximately 10 mg of the tetrapeptide . […] Walking about with the use of a wheeled walker at that time, the subject experienced knee pain, but at a level distinctly lower than earlier days before the injection. This degree of substantially diminished knee pain continued for an additional 16 hours when the return of pain was detected (3+ effect).

Data set [9] has as its system stress induced headache. The data set can be described thus: Example 51: analgesic effect on stress induced headache, topical. An excerpt: The onset of the headache was associated with emotional stress. Within two hours, the intensity of the headache became almost disabling, whereupon […] applied a solution composition containing 1% (w/v) N-Pg-Ty-Pro-Phe-Phe-NH2 (SEQ ID NO: 44) in WEP442 to the entire frontal and upper facial areas. […] At that time, the solution was generously applied a second time. […] The analgesic effect was judged to be 100%.

The test system of data set [10] is severe headache. The data set can be described thus: Example 59: analgesic effect on headache of acupuncturist, topical. The following applies: 0.6% (w/v) in WEP442, topical. An excerpt: A person acupuncturist, on a day while practicing their specialty, developed a severe headache that was not relieved by administering acupuncture procedures themself.
In data set [11] the test system is discomfort of hands. The data set can be described thus: Example 63: analgesic effect on wrist and hand pain, topical. Conditions: 0.5% (w/v) in WEP442, topical. An excerpt: A person hairdresser, after several hours of styling hair, experienced substantial discomfort on their hands that interfered with further pursuit of their work.
Data set [12] concerns chronic foot pain and neck pain. The data set can be described thus: Example 67: analgesic effect on pain in feet and neck with plaque psoriasis, topical. Conditions: 0.5% (w/v) in WEP442, topical. An excerpt: A person with plaque psoriasis since their early teenage years had chronic foot pain for the past 10-15 years and neck pain for the past several years. The latter had been associated with, and aggravated by occupationally keeping their neck to one side as they held a phone against their head. […] Such topical applications provided relief for over one month when used.

Data set [13] has as its system stress headaches. The data set can be described thus: Example 69: analgesic effect on repeating stress headaches, topical. The following applies: 0.5% (w/v) in WEP442, topical, 5-6 headaches over 3 weeks. An excerpt:
A person had repeated stress headaches for several months. Such headaches had been relieved, or partially relieved, by over-the-counter medication.

Data set [14] concerns restless leg syndrome. The data set can be described thus: Example 75: treatment of restless leg syndrome, topical. Conditions: 1% (w/v) in WEP442, topical to legs after an episode. An excerpt: Restless leg syndrome (RLS) is a disorder in which involuntary movements of the legs occur during the sleeping hours. A subject, presented with RLS for a duration of about 4 years. The disorder in the subject had not responded to therapy with opiates, nor to a benzodiazepine medication.

Consider `CC(=O)N[C@@H](Cc1ccc(O)cc1)C(=O)N1CCC[C@H]1C(=O)N[C@@H](Cc1ccccc1)C(=O)N[C@@H](Cc1ccccc1)C(N)=O` [N-Ac-Tyr-Pro-Phe-Phe-NH2], for which the “improvement by clinical evaluation” value in data set [1] (0.7% (w/v) in EP73, re-applied under plastic film wrap for 2 hours) is on record as 100%. Also, the relief of pain result in data set [1] (0.7% (w/v) in EP73, topical before bedtime, next morning) is given as “about 70%”. Also, in data set [2], the “relief of migraine pain and all other symptoms” value is reported as “suddenly disappeared completely”; the “time free of migraine headache and symptoms” value is on record as not below 3 days; the “time to pain relief” value was 6 to 7 min. Moreover, in [3] (1% (w/v) in WEP442, topical), the “duration of pain relief” value is given as “about 6 hours” and the “time to pain relief” value was not above 30 s. For the same compound, the pain relief entry in data set [3] (1% (w/v) in WEP442, topical each day for one month) is reported as “all arthritic pain of the finger was gone”. Also, in [4], the recurrence entry is “did not recur at all”. Moreover, in [4] (hand-wash manner), the pain relief entry is “instantaneous, complete relief of pain”. In addition, in data set [5], the pain relief entry was “completely relieved the headache” and the “time to pain relief” value was not above 2 min. Also, in [6], the analgesic effect grade is 4+ (4+ (90-100%): complete relief or eradication of pain for more than 4 hours), the pain relief entry was “the pain disappeared”, the “time to pain relief” value is listed as “about 2 minutes” and the “time without return of pain” value is more than 12 h. The “effect on sharp punctate pain” value in data set [7] is given as “did not prevent nor relieve the sharp punctate pain”. Further, in data set [8], the analgesic effect grade is on record as 3+ (3+ (75%): complete relief of pain for less than 4 hours) and the “discomfort from the injection” value is on record as “Mild discomfort from the injection”. In [8] (after the first 24 hours), the “additional duration of substantially diminished knee pain” value worked out at 16 h. The knee pain entry in data set [8] (over the ensuing 24 hours) is listed as “the knee pain gradually diminished”.
On to “N-Pg-Tyr-Pro-Phe-Phe-NH2 ([pGlu]YPFF-NH2; SMILES NC(=O)[C@H](Cc1ccccc1)NC(=O)[C@H](Cc1ccccc1)NC(=O)[C@@H]1CCCN1C(=O)[C@H](Cc1ccc(O)cc1)NC(=O)[C@@H]1CCC(=O)N1)”, for which the headache intensity result in [9] (1% (w/v) in WEP442, first application, within about 5 minutes) is reported as “diminished in intensity”. For the same compound, the pain relief result in data set [9] (1% (w/v) in WEP442, second application, within another 5 minutes) was “free of all headache pain”. In data set [9] (1% (w/v) in WEP442, topical), the analgesic effect is reported as 100% and the “time without return of pain” value was not below 24 h. Besides, in data set [10], the pain relief result is on record as “completely relieved their headache” and the “time to pain relief” value is not above 2 min. The relief of discomfort entry in [11] is given as “complete relief”. In addition, in data set [12], the “duration of pain relief” value lay in the range of 8 to 10 h and the pain relief result is given as “almost complete relief of pain”. Further, in [13], the headache relief entry is recorded as “completely relieved almost immediately”. Further, the involuntary leg movement entry in data set [14] was “completely prevented further involuntary leg movement”.

The values are drawn from patent publication US20190248834A1, “ENDOMORPHIN-2, TETRAPEPTIDE DERIVATIVES THEREOF, AND USES THEREOF” (priority 2016, published 2019).
